Results on 25 molecules are retold here after patent publication US6133294A (priority 1999, dated 2000).

Holding throughout (type): in vivo
For one assay, the system named is Leptosphaeria nodorum. Put plainly: Glume blotch of wheat (Leptosphaeria nodorum--LEPTNO). Particulars: wheat (cultivar Monon), 100 ppm spray to run off, inoculated after 24 hours; for pest or weed control at 100 ppm: Parastagonospora nodorum, 1DP, read-out: control of plant disease, LEPTNO 1DP. How it is done: (§1) Compound Formulation: Compound formulation was accomplished by dissolving technical materials in acetone, with serial dilutions then made in acetone to obtain desired rates. Final treatment volumes were obtained by adding nine volumes 0.05% aqueous Tween-20 or Triton X-100, depending upon the pathogen.
Glume blotch of wheat (Leptosphaeria nodorum--LEPTNO): Wheat (cultivar Monon) was grown from seed in a soilless peat-based potting mixture (Metromix) until the seedlings were 1-2 leaf (BBCH 12). These plants were then sprayed to run off with the test compound at a rate of 100 ppm. After 24 hours the test plants were inoculated with an aqueous spore suspension of Leptosphaeria nodorum. The plants were then transferred to the greenhouse until disease developed on the untreated control plants.
(§2) the following table presents the activity of typical compounds of the present invention when evaluated in these experiments. The effectiveness of the test compounds in controlling disease was rated using the following scale: […]

The next assay has as its system Phytophthora infestans. Put plainly: whole plant or invertebrate. Particulars: for control of plant disease, PHYTIN 1DP: tomatoes (cultivar Rutgers), 100 ppm spray to run off, inoculated after 24 hours; for pest or weed control at 100 ppm: Phytophthora infestans, 24 h, read-out: control of plant disease, PHYTIN 1DP.
The subject of another assay is Puccinia recondita. Put plainly: Brown rust (Puccinia recondita--PUCCRT). Particulars: wheat (cultivar Monon), 100 ppm spray to run off, inoculated after 24 hours; for pest or weed control at 100 ppm: Puccinia recondita, 1DP, read-out: control of plant disease, PUCCRT 1DP. As for the experimental part: as §1
Brown rust (Puccinia recondita--PUCCRT): Wheat (cultivar Monon) was grown from seed in a soilless peat-based potting mixture (Metromix) until the seedlings were […]). These plants were then sprayed to run off with the test compound at a rate of 100 ppm. After 24 hours the test plants were inoculated with an aqueous spore suspension of Puccinia recondita. The plants were then transferred to the greenhouse until disease developed on the untreated control plants.
as §2

For a further assay, the system named is Erysiphe graminis. The assay is described as follows: Powdery Mildew of Wheat (Erysiphe graminis--ERYSGT). Particulars: wheat (cultivar Monon), 100 ppm spray to run off, inoculated after 24 hours; for pest or weed control at 100 ppm: Blumeria graminis, 1DP, read-out: control of plant disease, ERYSGT 1DP. As for the experimental part: as §1
Powdery Mildew of Wheat (Erysiphe graminis--ERYSGT): Wheat (cultivar Monon) was grown in a soilless peat-based potting mixture (Metromix) until the seedlings were 1-2 leaf (BBCH 12). These plants were then sprayed to run off with the test compound at a rate of 100 ppm. After 24 hours the test plants were inoculated with Erysiphe graminis by dusting spores from stock plants onto the test plants. The plants were then transferred to the greenhouse until disease developed on the untreated control plants.
as §2

Regarding `CNC(=O)C(=NOC)c1ccc(C)cc1COc1ncc(-c2noc(C(F)(F)F)n2)cc1Cl` [Example 33], in the assay with Leptosphaeria nodorum, the “control of plant disease, LEPTNO 1DP” value is given as “++ (75-100% control of plant disease)”. For the same molecule, in the assay with Phytophthora infestans, the “control of plant disease, PHYTIN 1DP” value is reported as “++ (75-100% control of plant disease)”. Besides, the “control of plant disease, PUCCRT 1DP” value in the assay on Puccinia recondita is recorded as “++ (75-100% control of plant disease)”. The “control of plant disease, ERYSGT 1DP” value in the assay with Erysiphe graminis is “++ (75-100% control of plant disease)”.
Regarding `CNC(=O)C(=NOC)c1ccccc1COc1ncc(-c2nc(C(C)(C)C)no2)cc1Cl` [Example 47, Benzeneacetamide, 2-[[[3-chloro-5-(3-t-butyl-1,2,4-oxadiazol-5-yl)-2-pyridinyl]oxy]methyl]-α-(methoxyimino)-N-methyl-], the pest or weed control at 100 ppm in the assay on Leptosphaeria nodorum was 75 to 100%; in the assay with Phytophthora infestans, 0 to 24%; in the assay with Puccinia recondita it was 75 to 100%; in the assay with Erysiphe graminis, 75 to 100%.
With `CNC(=O)C(=NOC)c1ccccc1COc1ncc(-c2nnc(C)o2)cc1Cl` [Example 3], the pest or weed control at 100 ppm with Leptosphaeria nodorum, in the assay with Phytophthora infestans, with Puccinia recondita and with Erysiphe graminis was 75 to 100% in each case.
As to `CNC(=O)C(=NOC)c1ccccc1COc1ncc(-c2nc(N3CCCCC3)no2)cc1Cl` [Example 69], the “control of plant disease, LEPTNO 1DP” value in the assay with Leptosphaeria nodorum was “++ (75-100% control of plant disease)”. The “control of plant disease, PHYTIN 1DP” value in the assay with Phytophthora infestans was “++ (75-100% control of plant disease)”. The “control of plant disease, PUCCRT 1DP” value in the assay with Puccinia recondita is recorded as “++ (75-100% control of plant disease)”. Also, the “control of plant disease, ERYSGT 1DP” value in the assay on Erysiphe graminis was “++ (75-100% control of plant disease)”.
Take `CCC=Cc1nc(-c2cnc(OCc3ccccc3C(=NOC)C(=O)NC)c(Cl)c2)no1` [Example 22]: the pest or weed control at 100 ppm is 75 to 100% in the assay on Leptosphaeria nodorum, 0 to 24% with Phytophthora infestans, 75 to 100% in the assay on Puccinia recondita and 75 to 100% in the assay with Erysiphe graminis.
In the case of `CCCc1noc(-c2ccc(OCc3ccccc3C(=NOC)C(=O)NC)nc2)n1` [Example 74], the pest or weed control at 100 ppm was 0 to 24% with Leptosphaeria nodorum, 0 to 24% in the assay with Phytophthora infestans, 75 to 100% with Puccinia recondita and 75 to 100% in the assay with Erysiphe graminis.
Take `CCc1noc(-c2cnc(OCc3ccccc3C(=COC)C(=O)OC)c(Cl)c2)n1` [Example 99]: the pest or weed control at 100 ppm in the assay with Leptosphaeria nodorum was 75 to 100%; in the assay on Phytophthora infestans it was 25 to 74%; in the assay on Puccinia recondita, 75 to 100%; in the assay with Erysiphe graminis, 75 to 100%.
Regarding `CNC(=O)C(=NOC)c1ccccc1COc1ncc(-c2cc(C(C)(C)C)on2)cc1Cl` [Example 41], the pest or weed control at 100 ppm with Leptosphaeria nodorum lay within 75 to 100%; in the assay with Phytophthora infestans, 0 to 24%; in the assay on Puccinia recondita it was 75 to 100%; in the assay with Erysiphe graminis it was 75 to 100%.
As for `O=C(NNC(=O)C1CC1)c1cnc(Cl)c(Cl)c1` [Example 19], the “control of plant disease, LEPTNO 1DP” value with Leptosphaeria nodorum is listed as “++ (75-100% control of plant disease)”. Further, in the assay on Phytophthora infestans, the “control of plant disease, PHYTIN 1DP” value was “- (0-24% control of plant disease)”. In addition, in the assay on Puccinia recondita, the “control of plant disease, PUCCRT 1DP” value is “++ (75-100% control of plant disease)”. Moreover, the “control of plant disease, ERYSGT 1DP” value in the assay with Erysiphe graminis is reported as “++ (75-100% control of plant disease)”.
Turning to `COC=C(C(=O)OC)c1ccccc1COc1ncc(-c2noc(C(C)(C)C)n2)cc1Cl` [Example 98], the pest or weed control at 100 ppm in the assay on Leptosphaeria nodorum was in the range of 75 to 100%; in the assay with Phytophthora infestans it was 0 to 24%; with Puccinia recondita, 75 to 100%; in the assay on Erysiphe graminis, 75 to 100%.
Take `CNC(=O)C(=NOC)c1ccccc1COc1ccc(-c2noc(-c3ccccc3)n2)cn1` [Example 12]: the pest or weed control at 100 ppm with Leptosphaeria nodorum, in the assay with Phytophthora infestans, in the assay with Puccinia recondita and in the assay with Erysiphe graminis was 75 to 100% throughout.
With `CCc1nnc(-c2cnc(OCc3ccccc3C(=NOC)C(=O)NC)c(Cl)c2)o1` [Example 5], the pest or weed control at 100 ppm with Leptosphaeria nodorum, in the assay with Phytophthora infestans, in the assay on Puccinia recondita and in the assay on Erysiphe graminis was 75 to 100% throughout.
For the molecule `CCc1noc(-c2cnc(OCc3ccccc3C(=NOC)C(=O)NC)c(Cl)c2)n1` [Example 54], the pest or weed control at 100 ppm with Leptosphaeria nodorum, with Phytophthora infestans, in the assay on Puccinia recondita and in the assay on Erysiphe graminis was 75 to 100% each time.
For `CNC(=O)C(=NOC)c1ccccc1COc1ncc(-c2nnc(-c3ccccc3)o2)cc1Cl` [Example 2], the pest or weed control at 100 ppm was in the range of 75 to 100% in the assay with Leptosphaeria nodorum, 75 to 100% with Phytophthora infestans, 75 to 100% in the assay on Puccinia recondita and 25 to 74% with Erysiphe graminis.
For the molecule `CCc1cc(-c2cnc(OCc3ccccc3C(=NOC)C(=O)NC)c(Cl)c2)on1` [Example 76], the pest or weed control at 100 ppm was 75 to 100% in the assay on Leptosphaeria nodorum, 25 to 74% in the assay with Phytophthora infestans, 75 to 100% in the assay with Puccinia recondita and 75 to 100% with Erysiphe graminis.
As to `CCc1cc(-c2cnc(OCc3ccccc3C(=NOC)C(=O)NC)c(Cl)c2)no1` [Example 39], the pest or weed control at 100 ppm with Leptosphaeria nodorum fell in the range of 75 to 100%; with Phytophthora infestans, 0 to 24%; in the assay on Puccinia recondita it was 75 to 100%; in the assay with Erysiphe graminis it was 75 to 100%.
As for `CNC(=O)C(=NOC)c1ccccc1COc1ncc(-c2nnc(C3CC3)o2)cc1Cl` [Example 1, Benzeneacetamide, 2-[[[3-chloro-5-(5-cyclopropyl-1,3,4-oxadiazol-2-yl)-2-pyridinyl]oxy]methyl]-α-(methoxyimino)-N-methyl-], the pest or weed control at 100 ppm in the assay with Leptosphaeria nodorum was in the range of 0 to 24%; with Phytophthora infestans, 75 to 100%; in the assay with Puccinia recondita it was 75 to 100%; in the assay on Erysiphe graminis, 0 to 24%.
`CNC(=O)C(=NOC)c1ccccc1COc1ccc(-c2nc(C(C)C)no2)cn1` [Example 70]: the pest or weed control at 100 ppm in the assay on Leptosphaeria nodorum is 75 to 100%; in the assay on Phytophthora infestans, 0 to 24%; in the assay with Puccinia recondita it was 75 to 100%; with Erysiphe graminis, 75 to 100%.
As for `CCc1noc(-c2cccc(OCc3ccccc3C(=NOC)C(=O)NC)n2)n1` [Example 85], the “control of plant disease, LEPTNO 1DP” value in the assay on Leptosphaeria nodorum is reported as “- (0-24% control of plant disease)”. Further, the “control of plant disease, PHYTIN 1DP” value in the assay with Phytophthora infestans is recorded as “- (0-24% control of plant disease)”. Moreover, in the assay with Puccinia recondita, the “control of plant disease, PUCCRT 1DP” value is listed as “++ (75-100% control of plant disease)”. Besides, the “control of plant disease, ERYSGT 1DP” value in the assay on Erysiphe graminis is “+ (25-74% control of plant disease)”.
For the molecule `CNC(=O)C(=NOC)c1ccccc1COc1ncc(-c2noc(C34CC5CC(CC(C5)C3)C4)n2)cc1Cl` [Example 15], the pest or weed control at 100 ppm with Leptosphaeria nodorum was in the range of 0 to 24%; in the assay with Phytophthora infestans it was 75 to 100%; with Puccinia recondita, 75 to 100%; in the assay with Erysiphe graminis, 75 to 100%.
For `CCc1noc(-c2cccc(OCc3ccccc3C(=NOC)C(=O)NC)n2)n1` [Example 83], the pest or weed control at 100 ppm was 75 to 100% in the assay on Leptosphaeria nodorum, 75 to 100% in the assay on Phytophthora infestans, 75 to 100% in the assay with Puccinia recondita and 25 to 74% in the assay with Erysiphe graminis.
For `CNC(=O)C(=NOC)c1cccc(F)c1COc1cccc(-c2nc(C(C)(C)C)no2)n1` [Example 88], the “control of plant disease, LEPTNO 1DP” value in the assay with Leptosphaeria nodorum is “++ (75-100% control of plant disease)”. Further, the “control of plant disease, PHYTIN 1DP” value with Phytophthora infestans is “++ (75-100% control of plant disease)”. The “control of plant disease, PUCCRT 1DP” value in the assay with Puccinia recondita is recorded as “++ (75-100% control of plant disease)”. Also, the “control of plant disease, ERYSGT 1DP” value in the assay on Erysiphe graminis was “++ (75-100% control of plant disease)”.
`CNC(=O)C(=NOC)c1ccccc1COc1ncc(-c2cc(C(C)C)on2)cc1Cl` [Example 38]: the pest or weed control at 100 ppm lay in the range of 75 to 100% in the assay with Leptosphaeria nodorum, 0 to 24% with Phytophthora infestans, 75 to 100% with Puccinia recondita and 75 to 100% in the assay on Erysiphe graminis.
On to `CNC(=O)C(=NOC)c1ccccc1COc1ncc(-c2noc(C(F)(F)F)n2)cc1Cl` [Example 11], for which the pest or weed control at 100 ppm with Leptosphaeria nodorum is 75 to 100%; with Phytophthora infestans, 0 to 24%; in the assay on Puccinia recondita, 75 to 100%; in the assay with Erysiphe graminis, 75 to 100%.
As for `CNC(=O)C(=NOC)c1ccccc1COc1ccc(-c2noc(C(F)(F)F)n2)cn1` [Example 16], the pest or weed control at 100 ppm in the assay with Leptosphaeria nodorum lay in the range of 0 to 24%; with Phytophthora infestans, 0 to 24%; in the assay on Puccinia recondita, 75 to 100%; in the assay on Erysiphe graminis, 75 to 100%.
